{"source": "patent US20250228899A1", "about": "“GENERATING AND UTILIZING ADULT HEPATOCYTE ORGANOIDS” (University of Washington, priority 2021, published 2025)", "tested_on": "adult human hepatocytes", "experiment": "Adult human hepatocyte organoids grown in different concentrations of A83-01", "assay_type": "cell-based", "settings": "albumin secretion and organoid cross-sectional area readouts", "experimental": "In this Example, adult human hepatocytes were grown in different concentrations of A83-01, ranging from 0 nM to 40 nM. FIG. 16 illustrates albumin secretion of hepatocytes grown with 6 different concentrations of A83-01 measured by human albumin ELISA. FIG. 17 illustrates average cross-sectional area of organoids in individual wells grown in 4 different concentrations of A83-01 ranging from 0 to 100 nM. Data is represented as the mean, plus or minus standard deviation of more than 20 wells. FIG. 18 illustrates albumin secretion measured by human Albumin ELISA, comparing adult human hepatocyte organoids grown in 5 different concentrations of A83-01 ranging from 0 nM to 40 nM. The results of these studies illustrate that medium containing less than 50 nM of A83-01 is effective for adult hepatocyte growth."}
{"smiles": "Cc1cccc(-c2nn(C(=S)Nc3ccccc3)cc2-c2ccnc3ccccc23)n1", "note": "[A83-01]", "values": [{"measurement": "A83-01 concentration in medium effective for adult hepatocyte growth", "result": "less than 50 nM"}]}
